Measurements as given in patent US8383637B2, “2-amino-quinazoline derivatives useful as inhibitors of β-secretase (BACE)” (Jansssen Pharmaceutica N.V., priority 2004, dated 2013).

Molecular target: T1, β-secretase(BACE) (Homo sapiens, UniProt P56817)
T1 construct: purchased Panvera
Test: BACE FS1% Inhibition Assay
Format: biochemical
Details: FS1 substrate; for % Inhibition (FS) 0.3 μM: 0.3 μM test compound; for % Inhibition (FS) 1 μM: 1 μM test compound; for % Inhibition (FS) 3 μM: 3 μM test compound
Procedure, shortened: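 Percent inhibition at each tested concentration, referenced to enzyme-free blank and vehicle-only positive control. Reaction: compound and BACE (4 μg/mL working stock) mixed 20 min at room temperature before FS1 substrate (300 μg/mL working stock), then 1 h at room temperature.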

T1 sequence (P56817 46-501): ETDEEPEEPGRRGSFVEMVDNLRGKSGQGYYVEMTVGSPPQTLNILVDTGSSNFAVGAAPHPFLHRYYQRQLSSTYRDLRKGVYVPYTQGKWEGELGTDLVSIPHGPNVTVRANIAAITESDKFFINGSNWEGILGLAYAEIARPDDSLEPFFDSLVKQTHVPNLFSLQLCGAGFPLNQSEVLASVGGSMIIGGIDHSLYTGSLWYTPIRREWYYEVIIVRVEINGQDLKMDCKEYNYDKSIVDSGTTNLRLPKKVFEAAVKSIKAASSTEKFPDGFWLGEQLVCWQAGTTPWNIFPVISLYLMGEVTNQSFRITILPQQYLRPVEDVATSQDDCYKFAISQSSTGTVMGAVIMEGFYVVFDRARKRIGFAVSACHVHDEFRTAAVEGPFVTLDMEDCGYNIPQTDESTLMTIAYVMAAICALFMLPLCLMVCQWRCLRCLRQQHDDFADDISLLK

Row | Compound | % Inhibition (FS) 0.3 μM [%] | % Inhibition (FS) 1 μM [%] | % Inhibition (FS) 3 μM [%]
1 | CSc1ccc(Nc2ccc3c(c2)CN(Cc2cccc(C(=O)N(C)C4CCCCC4)c2)C(N)=N3)cc1 [Compound 442] | <30 | 58 | 101
2 | NC1=Nc2ccc(Oc3ccccc3)cc2CN1Cc1cccc(C(=O)N2CCCCC2)c1 [Compound 443] | <30 | 39 | 67
3 | NC1=Nc2ccc(Oc3ccccc3)cc2CN1Cc1cccc(C(=O)NC2CCCCC2)c1 [Compound 451] | <30 | <30 | <30
4 | NC1=Nc2ccc(Oc3ccccc3)cc2CN1C(CCCC(=O)N1CCCCC1)CCC(=O)N1CCCCC1 (stereo not drawn) [Compound 452] | <30 | 42 | 78
5 | CN(C(=O)c1ccccc1CN1Cc2cc(Oc3ccccc3)ccc2N=C1N)C1CCCCC1 [Compound 463] | <30 | <30 | <30
6 | COc1cccc(OC)c1Oc1ccc2c(c1)CN(CCC(=O)NC1C3CC4CC(C3)CC1C4)C(N)=N2 (stereo not drawn) [Compound 465] | <30 | <30 | <30
7 | CC(C)c1ccccc1Oc1ccc2c(c1)CN(CCC(=O)NC1C3CC4CC(C3)CC1C4)C(N)=N2 (stereo not drawn) [Compound 466] | <30 | <30 | 53
8 | COc1ccc(C)cc1Oc1ccc2c(c1)CN(Cc1cccc(C(=O)N(C)C3CCCCC3)c1)C(N)=N2 [Compound 467] | <30 | <30 | <30
9 | COc1cccc(C)c1Oc1ccc2c(c1)CN(Cc1cccc(C(=O)N(C)C3CCCCC3)c1)C(N)=N2 [Compound 468] | <30 | <30 | <30
10 | COc1ccc(-c2nc3ccccc3s2)c(Oc2ccc3c(c2)CN(Cc2cccc(C(=O)N(C)C4CCCCC4)c2)C(N)=N3)c1 [Compound 469] | <30 | <30 | <30
11 | CN(C(=O)c1cccc(CN2Cc3cc(Oc4ccccc4-c4nc5ccccc5s4)ccc3N=C2N)c1)C1CCCCC1 [Compound 470] | <30 | <30 | 31
12 | CN(C(=O)c1cccc(CN2Cc3cc(Oc4ccccc4-n4cccc4)ccc3N=C2N)c1)C1CCCCC1 [Compound 471] | <30 | <30 | 38
13 | CN(C(=O)c1cccc(CN2Cc3cc(Oc4ccccc4S(C)(=O)=O)ccc3N=C2N)c1)C1CCCCC1 [Compound 472] | <30 | <30 | <30
14 | CN(C(=O)c1cccc(CN2Cc3cc(Oc4cccc(-c5ccc6ccccc6n5)c4)ccc3N=C2N)c1)C1CCCCC1 [Compound 473] | <30 | <30 | <30
15 | CSc1ccccc1Oc1ccc2c(c1)CN(Cc1cccc(C(=O)N(C)C3CCCCC3)c1)C(N)=N2 [Compound 474] | <30 | <30 | <30
